Among the data in patent publication US20160200733A1, “SUBSTITUTED THIENO[2,3-B]PYRIDINE-2-CARBOXAMIDE ANALOGS AS POSITIVE ALLOSTERIC MODULATORS OF THE MUSCARINIC ACETYLCHOLINE RECEPTOR M4” (Vanderbilt University, priority 2013, published 2016) are Emax and EC50 values, retold here.

This assay concerns the target T1, mAChR hM4 (Homo sapiens, UniProt P08173).
T1 construct: expressed in transfected cells; host or cells: CHO-K1 (Chinese hamster ovary) cells
T1 sequence (P08173 1-479): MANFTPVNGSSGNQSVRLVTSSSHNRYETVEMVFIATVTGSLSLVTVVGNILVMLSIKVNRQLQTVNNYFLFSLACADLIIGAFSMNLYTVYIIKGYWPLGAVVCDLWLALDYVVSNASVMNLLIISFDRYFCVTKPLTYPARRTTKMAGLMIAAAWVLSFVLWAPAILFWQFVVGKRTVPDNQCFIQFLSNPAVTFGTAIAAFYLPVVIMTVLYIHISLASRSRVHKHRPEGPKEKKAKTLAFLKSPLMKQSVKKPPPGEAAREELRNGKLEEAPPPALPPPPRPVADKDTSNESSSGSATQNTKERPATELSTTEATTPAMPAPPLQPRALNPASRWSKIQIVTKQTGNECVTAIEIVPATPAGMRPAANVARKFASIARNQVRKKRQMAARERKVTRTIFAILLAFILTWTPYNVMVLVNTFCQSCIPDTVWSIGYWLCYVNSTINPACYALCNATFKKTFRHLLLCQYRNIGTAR
In words: mAChR M4 cell-based functional assay (calcium flux, potentiation of EC20 acetylcholine response). The conditions noted are these: mAChR hM4 cell-line; for Emax at 30 µM: % ACh maximum at 30 μM; for EC50: >10,000 estimated for low potency compounds lacking a plateau. The text has this:
In one aspect, the disclosed compounds potentiate the agonist response (e.g., acetylcholine) of mAChR M4. In a further aspect, the disclosed compounds increase mAChR M4 response to non-maximal concentrations of agonist in the presence of compound compared to the response to agonist in the absence of compound. […] For example, activation of mAChR M4 activity can be determined by measurement of calcium flux in response to agonist, e.g. acetylcholine, in cells loaded with a Ca^2+-sensitive fluorescent dye (e.g., Fluo-4). In a further aspect, the calcium flux was measured as an increase in fluorescent static ratio. In a yet further aspect, positive allosteric modulator activity was analyzed as a concentration-dependent increase in the EC20 acetylcholine response (i.e. the response of mAChR M4 at a concentration of acetylcholine that yields 20% of the maximal response).
In one aspect, the disclosed compounds activate mAChR M4 response as an increase in calcium fluorescence in mAChR M4-transfected CHO-K1 cells in the presence of the compound, compared to the response of equivalent CHO-K1 cells in the absence of the compound. […] In a further aspect, the mAChR M4-transfected CHO-K1 cells are transfected with human mAChR M4. In a still further aspect, the mAChR M4-transfected CHO-K1 cells are transfected with rat mAChR M4.
Substituted 3-aminothieno[2,3-c]pyridine-2-carboxamide analogs were synthesized as described above. Activity (EC50 and Emax) was determined in the mAChR M4 cell-based functional assay as described above, and the data are shown in Table II for assays conducted using mAChR hM4 cell-line. The compound number corresponds to the compound numbers used in Table I.

Broadly, the Emax is the greatest response seen or fitted, relative to the assay's reference. Usually EC50 stands for the concentration at which the effect is half-maximal.

Each structure is given as a SMILES string.

In the case of `Cc1cc(C)c2c(Br)c(C(=O)NC3CC3)sc2n1` [Compound 4, 3-bromo-N-cyclopropyl-4,6-dimethylthieno[2,3-b]pyridine-2-carboxamide], the Emax at 30 µM was determined as 49% and the EC50 was 4.8 µM.
Regarding `Cc1cc(C)c2c(Br)c(C(=O)N3Cc4ccccc4C3)sc2n1` [Compound 5, (3-bromo-4,6-dimethylthieno[2,3-b]pyridin-2-yl)(isoindolin-2-yl)methanone], the concentration for a half-maximal effect (EC50) is over 10 µM.
With `Cc1cc(C)c2c(Br)c(C(=O)NC3CCC3)sc2n1` [Compound 6, 3-bromo-N-cyclobutyl-4,6-dimethylthieno[2,3-b]pyridine-2-carboxamide], the maximum response (Emax) at 30 µM turned out to be 41% and the half-maximal effective concentration (EC50) is over 10 µM.
Take `Cc1cc(C)c2c(Br)c(C(=O)NC3CCOC3)sc2n1` (stereo not shown) [Compound 7, 3-bromo-4,6-dimethyl-N-(tetrahydrofuran-3-yl)thieno[2,3-b]pyridine-2-carboxamide]: the 50% effective concentration (EC50) is over 10 µM.
For the compound `Cc1cc(C)c2c(Br)c(C(=O)NC3(C)COC3)sc2n1` [Compound 8, 3-bromo-4,6-dimethyl-N-(3-methyloxetan-3-yl)thieno[2,3-b]pyridine-2-carboxamide], the maximal effect (Emax) at 30 µM is 59% and the EC50 is 3.7 µM.
On the same counts, the results for `Cc1cc(C)c2c(Br)c(C(=O)NCc3cccnc3)sc2n1` [Compound 9, 3-bromo-4,6-dimethyl-N-(pyridin-3-ylmethyl)thieno[2,3-b]pyridine-2-carboxamide] are 33% and 3 µM.
Regarding `COc1ccc(CNC(=O)c2sc3nc(C)cc(C)c3c2Br)cc1` [Compound 10, 3-bromo-N-(4-methoxybenzyl)-4,6-dimethylthieno[2,3-b]pyridine-2-carboxamide], the concentration for a half-maximal effect (EC50) is over 10 µM.
Turning to `Cc1cc(C)c2c(Br)c(C(=O)NCC(C)C)sc2n1` [Compound 11, 3-bromo-N-isobutyl-4,6-dimethylthieno[2,3-b]pyridine-2-carboxamide], the EC50 was over 10 µM.
Regarding `Cc1cc(C)c2c(Br)c(C(=O)NC3CCOCC3)sc2n1` [Compound 12, 3-bromo-4,6-dimethyl-N-(tetrahydro-2H-pyran-4-yl)thieno[2,3-b]pyridine-2-carboxamide], the EC50 is over 10 µM.
Consider `Cc1cc(C)c2c(Br)c(C(=O)NCC3CC3)sc2n1` [Compound 13, 3-bromo-N-(cyclopropylmethyl)-4,6-dimethylthieno[2,3-b]pyridine-2-carboxamide], for which the maximum response (Emax) at 30 µM was 29% and the EC50 was over 10 µM.
`Cc1cc(C)c2c(Br)c(C(=O)N3CCOCC3)sc2n1` [Compound 14, (3-bromo-4,6-dimethylthieno[2,3-b]pyridin-2-yl)(morpholino)methanone]: the EC50 is over 10 µM.
For the compound `COc1ccc(CNC(=O)c2cc3c(C)cc(C)nc3s2)cc1` [Compound 15, N-(4-methoxybenzyl)-4,6-dimethylthieno[2,3-b]pyridine-2-carboxamide], the Emax at 30 µM was found to be 55% and the concentration for a half-maximal effect (EC50) is 4 µM.
For `COc1ccc(CNC(=O)c2sc3nc(C)cc(C)c3c2I)cc1` [Compound 16, 3-iodo-N-(4-methoxybenzyl)-4,6-dimethylthieno[2,3-b]pyridine-2-carboxamide], the maximal effect (Emax) at 30 µM worked out at 51% and the half-maximal effective concentration (EC50) was 2.6 µM.
Regarding `COc1ccc(CNC(=O)c2sc3nc(C)cc(C)c3c2C)cc1` [Compound 17, N-(4-methoxybenzyl)-3,4,6-trimethylthieno[2,3-b]pyridine-2-carboxamide], the Emax at 30 µM stood at 53% and the EC50 is 2.4 µM.
On the same counts, the results for `Cc1cc(C)c2c(C)c(C(=O)NC3CC3)sc2n1` [Compound 18, N-cyclopropyl-3,4,6-trimethylthieno[2,3-b]pyridine-2-carboxamide] are 73% and over 10 µM.
As for `Cc1cc(C)c2c(C)c(C(=O)NCc3ccc(S(C)(=O)=O)cc3)sc2n1` [Compound 19, 3,4,6-trimethyl-N-(4-(methylsulfonyl)benzyl)thieno[2,3-b]pyridine-2-carboxamide], the Emax at 30 µM was found to be 62% and the concentration giving a half-maximal response (EC50) was 4.2 µM.
As to `Cc1cc(C)c2c(C)c(C(=O)NCc3ccc4c(c3)CCO4)sc2n1` [Compound 20, N-((2,3-dihydrobenzofuran-5-yl)methyl)-3,4,6-trimethylthieno[2,3-b]pyridine-2-carboxamide], the Emax at 30 µM was found to be 38% and the EC50 is 2.6 µM.
In the case of `Cc1cc(C)c2c(C)c(C(=O)NCc3ccc(OC(F)(F)F)cc3)sc2n1` [Compound 21, 3,4,6-trimethyl-N-(4-(trifluoro-methoxy)benzyl)thieno[2,3-b]pyridine-2-carboxamide], the EC50 is over 10 µM.
For `Cc1cc(C)c2c(C)c(C(=O)NC3CCOC3)sc2n1` (stereo not shown) [Compound 22, 3,4,6-trimethyl-N-(tetrahydrofuran-3-yl)thieno[2,3-b]pyridine-2-carboxamide], the maximal response (Emax) at 30 µM is 67% and the EC50 was over 10 µM.
Take `Cc1cc(C)c2c(C)c(C(=O)N3CCCC(F)(F)C3)sc2n1` [Compound 23, (3,3-difluoropiperidin-1-yl)(3,4,6-trimethylthieno[2,3-b]pyridin-2-yl)methanone]: the EC50 is over 10 µM.
In the case of `Cc1cc(C)c2c(C)c(C(=O)N3CCCC3)sc2n1` [Compound 24, pyrrolidin-1-yl(3,4,6-trimethylthieno[2,3-b]pyridin-2-yl)methanone], the EC50 is over 10 µM.
On to `Cc1cc(C)c2c(C)c(C(=O)N[C@@H]3CCOC3)sc2n1` [Compound 25, (R)-3,4,6-trimethyl-N-(tetrahydrofuran-3-yl)thieno[2,3-b]pyridine-2-carboxamide], for which the Emax at 30 µM was found to be 60% and the EC50 is over 10 µM.
On to `Cc1cc(C)c2c(C)c(C(=O)NC3CCOCC3)sc2n1` [Compound 26, 3,4,6-trimethyl-N-(tetrahydro-2H-pyran-4-yl)thieno[2,3-b]pyridine-2-carboxamide], for which the maximal response (Emax) at 30 µM amounted to 44% and the EC50 was over 10 µM.
Take `CSc1ccc(CNC(=O)c2sc3nc(C)cc(C)c3c2C)cc1` [Compound 27, 3,4,6-trimethyl-N-(4-(methylthio)benzyl)thieno[2,3-b]pyridine-2-carboxamide]: the maximal response (Emax) at 30 µM is 49% and the EC50 was 2.2 µM.
As to `COc1ccc2c(c1)CCN(C(=O)c1sc3nc(C)cc(C)c3c1C)C2` [Compound 28, (6-methoxy-3,4-dihydroisoquinolin-2(1H)-yl)(3,4,6-trimethylthieno[2,3-b]pyridin-2-yl)methanone], the EC50 was over 10 µM.
On to `COc1ccc(C(C)NC(=O)c2sc3nc(C)cc(C)c3c2C)cc1` (stereo not shown) [Compound 29, N-(1-(4-methoxyphenyl)ethyl)-3,4,6-trimethylthieno[2,3-b]pyridine-2-carboxamide], for which the EC50 was over 10 µM.
For `Cc1cc(C)c2c(C)c(C(=O)NCCN3CCOCC3)sc2n1` [Compound 30, 3,4,6-trimethyl-N-(2-morpholinoethyl)thieno[2,3-b]pyridine-2-carboxamide], the 50% effective concentration (EC50) was over 10 µM.
`Cc1cc(C)c2c(C)c(C(=O)NCc3ccc4c(c3)OCCO4)sc2n1` [Compound 31, N-((2,3-dihydrobenzo[b][1,4]dioxin-6-yl)methyl)-3,4,6-trimethylthieno[2,3-b]pyridine-2-carboxamide]: the Emax at 30 µM is 57% and the EC50 is 2.2 µM.
`Cc1cc(C)c2c(Br)c(C(=O)NCc3ccc(S(C)(=O)=O)cc3)sc2n1` [Compound 32, 3-bromo-4,6-dimethyl-N-(4-(methylsulfonyl)benzyl)thieno[2,3-b]pyridine-2-carboxamide]: the half-maximal effective concentration (EC50) is over 10 µM.
Still for that read-out and setting: as for `Cc1cc(C)c2c(C#N)c(C(=O)NCc3ccc(S(C)(=O)=O)cc3)sc2n1` [Compound 33, 3-cyano-4,6-dimethyl-N-(4-(methylsulfonyl)benzyl)thieno[2,3-b]pyridine-2-carboxamide], the figure is over 10 µM; as for `Cc1cc(C)c2c(-c3ccccc3)c(C(=O)NCc3ccc(S(C)(=O)=O)cc3)sc2n1` [Compound 34, 4,6-dimethyl-N-(4-(methylsulfonyl)benzyl)-3-phenylthieno[2,3-b]pyridine-2-carboxamide], over 10 µM.
On to `Cc1cc(C)c2cc(C(=O)NCc3ccc(S(C)(=O)=O)cc3)sc2n1` [Compound 35, 4,6-dimethyl-N-(4-(methylsulfonyl)benzyl)thieno[2,3-b]pyridine-2-carboxamide], for which the maximal effect (Emax) at 30 µM came to 41% and the EC50 is over 10 µM.
